Reference: ChEMBL document CHEMBL1148132, “Abietane diterpenoids from Coleus xanthanthus” (J Nat Prod, 2002)
≈ marks a conversion by molar mass, not a printed value.

These compounds were tested on K562 (assay: Cytotoxicity against human K562 cells after 48 hrs by MTT assay). Settings: K562, 48 h.
Type: functional, cell-based

SMILES | IC50 [µg/mL]
CC(=O)OCC(C)C1=C(OC(C)=O)C(=O)C2=C(C(=O)C(O)=C3C(C)(C)CCC[C@]23C)C1=O (stereo partly specified) [XANTHANTHUSIN H] | 12.9 (≈ 29 µM)
O=C1c2c(O)ccc(O)c2C(=O)c2c(NCCNCCO)ccc(NCCNCCO)c21 [MITOXANTRONE] | 2 (≈ 4.5 µM)
CC(C)C1=C(O)C(=O)C([C@@]2(C)CCCC(C)(C)C2=O)=C(C(=O)O)C1=O [XANTHANTHUSIN E] | 34.3 (≈ 98.5 µM)
CC(=O)Oc1c(O)c(C(C)C)c(O)c2c1[C@@]1(C)CCCC(C)(C)C1=C(O)C2=O | 2.2 (≈ 5.66 µM)
CC(C)C1=C(O)C(=O)C2=C(C(=O)C(O)=C3C(C)(C)CCC[C@]23C)C1=O | 3 (≈ 8.71 µM)
CC(C)C1=C(O)C(=O)[C@@]23O[C@@]2(C(=O)C(O)=C2C(C)(C)CCC[C@@]23C)C1=O | 13.9 (≈ 38.6 µM)
